Assay results from patent US8921552B2, “Benzothiazole hybrids useful as anticancer agents and process for the preparation thereof” (Council of Scientific & Industrial Research, priority 2011, dated 2014).

Key:
IGR-OV-1 = assay: In vitro cytotoxicity, SRB assay, ovarian cancer cell line IGR-OV-1; assay type: cell-based, human; conditions: IGR-OV-1 (ovarian); for inhibition at 10 µM: Homo sapiens, IGROV-1, 48 h exposure, read-out: % of growth inhibition
Excerpt: (§1) The benzothiazole hybrids has been tested against seven human tumor cell lines derived from six cancer types (lung cancer, colon cancer, CNS cancer, ovarian cancer, prostate cancer and breast cancer). For these compounds results are expressed as percent of cell growth inhibition relative to that of untreated control cells.

Colo-205 = assay: In vitro cytotoxicity, SRB assay, colon cancer cell line Colo-205; assay type: cell-based, human; conditions: Colo-205 (colon); for inhibition at 10 µM: Homo sapiens, 48 h exposure, read-out: % of growth inhibition
Excerpt: as §1

MCF7 = assay: In vitro cytotoxicity, SRB assay, breast cancer cell line MCF7; assay type: cell-based, human; conditions: for inhibition at 10 µM: Homo sapiens, 48 h exposure, read-out: % of growth inhibition
Excerpt: as §1

SF-295 = assay: In vitro cytotoxicity, SRB assay, CNS cancer cell line SF-295; assay type: cell-based, human; conditions: SF-295 (CNS); for inhibition at 10 µM: Homo sapiens, 48 h exposure, read-out: % of growth inhibition
Excerpt: as §1

SW-620 [1] = assay: In vitro cytotoxicity, SRB assay, colon cancer cell line SW-620; assay type: cell-based, human; conditions: SW-620 (colon), reference drug at 1 μM
PC-3 = assay: In vitro cytotoxicity, SRB assay, prostate cancer cell line PC-3; assay type: cell-based, human; conditions: PC-3 (prostate); for inhibition at 10 µM: Homo sapiens, 48 h exposure, read-out: % of growth inhibition
Excerpt: as §1

A-549 = assay: In vitro cytotoxicity, SRB assay, lung cancer cell line A-549; assay type: cell-based, human; conditions: A-549 (lung); for inhibition at 10 µM: Homo sapiens, A549, 48 h exposure, read-out: % of growth inhibition
Excerpt: as §1

human tumor cell lines = assay: In vitro anticancer activity, panel of seven human tumor cell lines (SRB assay); assay type: cell-based; conditions: Homo sapiens; range over the cell lines, 10 μM, exposure period of at least 48 hrs; read-out: percentage growth inhibition for invitro anticancer activity
Protocol: as §1, with “cells. A protocol of 48 h continuous drug exposure has been used, and a sulforhodamine B (SRB) protein assay was used to estimate cell viability or growth.” for “cells.”
(§2) The compounds 9b, 9h, 9m, 9r, 15c, 15h, 15m, 15r, 10b, 10h, 10m, 10r, 16c, 16h and 16m were evaluated for in vitro anticancer activity against seven human tumor cells derived from six cancer types (lung cancer, colon cancer, CNS cancer, ovarian cancer, prostate cancer and breast cancer) at concentration of 10 μM and the results are shown in Table 1.

SW-620 [2] = assay: In vitro cytotoxicity, SRB assay, colon cancer cell line SW-620; assay type: cell-based; conditions: Homo sapiens, SW-620 (colon), 48 h exposure, read-out: % of growth inhibition
Protocol: as §1, with “cells. A protocol of 48 h continuous drug exposure has been used, and a sulforhodamine B (SRB) protein assay was used to estimate cell viability or growth.” for “cells.”
as §2

Structure (SMILES) | % of growth inhibition (IGR-OV-1; reference drug at 1 μM) [%] | % of growth inhibition (Colo-205; reference drug at 1 μM) [%] | % of growth inhibition (MCF7; reference drug at 1 μM) [%] | % of growth inhibition (SF-295; reference drug at 1 μM) [%] | % of growth inhibition (SW-620 [1]) [%] | % of growth inhibition (PC-3; reference drug at 1 μM) [%] | % of growth inhibition (A-549; reference drug at 1 μM) [%] | inhibition at 10 µM (IGR-OV-1) [%] | inhibition at 10 µM (human tumor cell lines) [%] | inhibition at 10 µM (Colo-205) [%] | inhibition at 10 µM (MCF7) [%] | inhibition at 10 µM (SF-295) [%] | inhibition at 10 µM (PC-3) [%] | inhibition at 10 µM (A-549) [%] | inhibition at 10 µM (SW-620 [2]) [%]
COc1cccc2c1C(=O)c1c(O)c3c(c(O)c1C2=O)C[C@@](O)(C(=O)CO)C[C@@H]3O[C@H]1C[C@H](N)[C@H](O)[C@H](C)O1 [Adriyamycin, reference compound] | 78 | 77 | 69 | 55 | 21 | 55 | 95 | – | – | – | – | – | – | – | –
COc1ccc(/C=C\c2cc(OC)c(OC)c(OC)c2)cc1OCCCCOc1cc(-c2nc3ccccc3s2)ccc1OC [Compound 9m, 2-[4-methoxy-3-(4-{2-methoxy-5-[(Z)-2-(3,4,5-trimethoxyphenyl)-1-ethenyl]phenoxy}butoxy)phenyl]-1,3-benzothiazole] | – | – | – | – | – | – | – | 58 | 1 to 100 | 70 | 64 | 44 | 68 | 73 | –
O=c1[nH]cc(F)c(=O)[nH]1 [5-Fluoro uracil, reference compound] | – | – | – | – | – | – | – | 47 | – | 55 | 66 | 9 | 29 | 64 | 41
COc1ccc(/C=C\c2cc(OC)c(OC)c(OC)c2)cc1OCCCCOc1ccc(-c2nc3ccccc3s2)cc1 [Compound 9h, 2-[4-(4-{2-methoxy-5-[(Z)-2-(3,4,5-trimethoxyphenyl)-1-ethenyl]phenoxy}butoxy)phenyl]-1,3-benzothiazole] | – | – | – | – | – | – | – | 54 | 1 to 100 | 15 | 64 | 34 | 65 | 63 | –
